Source: the supplement of paper PMC10307832

Assays:
Assay in all cases: relative viability (nuclei count vs DMSO), 5 days (fraction); higher = more cells survive
[1] = compound: C[C@@]1(C(=O)Nc2ccc(F)nc2)CCCN1c1nc(Nc2cc(C3CC3)n[nH]2)c2cccn2n1 + N=C(N)NC(=N)NCCc1ccccc1 [Phenformin] (partner 250 µM)
Outline: (§1)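 Lung cancer cell lines in 1536-well plates got either a single drug or a fixed anchor-drug dose together with five library-drug doses (not always all listed) in √10 steps, by pin tool, on the day after seeding. Nuclei were counted after 5 days, and relative viability is the treated-to-vehicle ratio of nuclei counts. Values are medians of duplicate plates.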

Motesanib + Tozasertib = compound: CC1(C)CNc2cc(NC(=O)c3cccnc3NCc3ccncc3)ccc21 [Motesanib] + Cc1cc(Nc2cc(N3CCN(C)CC3)nc(Sc3ccc(NC(=O)C4CC4)cc3)n2)n[nH]1 [Tozasertib] (partner 0.1 µM)
Outline: as §1

Motesanib + Pemetrexed = compound: CC1(C)CNc2cc(NC(=O)c3cccnc3NCc3ccncc3)ccc21 [Motesanib] + Nc1nc2[nH]cc(CCc3ccc(C(=O)N[C@@H](CCC(=O)O)C(=O)O)cc3)c2c(=O)[nH]1 [Pemetrexed] (partner 0.2 µM)
Outline: as §1

Motesanib + AZD7762 = compound: CC1(C)CNc2cc(NC(=O)c3cccnc3NCc3ccncc3)ccc21 [Motesanib] + NC(=O)Nc1cc(-c2cccc(F)c2)sc1C(=O)N[C@H]1CCCNC1 [AZD7762] (partner 0.2 µM)
Outline: as §1

| Cell Line | relative viability ([1]; first compound 0.04 µM) | relative viability ([1]; first compound 0.1265 µM) | relative viability ([1]; first compound 0.4 µM) | relative viability ([1]; first compound 1.265 µM) | relative viability (Motesanib + Tozasertib; first compound 0.01 µM) | relative viability (Motesanib + Tozasertib; first compound 0.03162 µM) | relative viability (Motesanib + Tozasertib; first compound 0.1 µM) | relative viability (Motesanib + Tozasertib; first compound 0.3162 µM) | relative viability (Motesanib + Tozasertib; first compound 1 µM) | relative viability (Motesanib + Pemetrexed; first compound 0.01 µM) | relative viability (Motesanib + Pemetrexed; first compound 0.03162 µM) | relative viability (Motesanib + Pemetrexed; first compound 0.1 µM) | relative viability (Motesanib + Pemetrexed; first compound 0.3162 µM) | relative viability (Motesanib + Pemetrexed; first compound 1 µM) | relative viability (Motesanib + AZD7762; first compound 0.01 µM) | relative viability (Motesanib + AZD7762; first compound 0.03162 µM) | relative viability (Motesanib + AZD7762; first compound 0.1 µM) | relative viability (Motesanib + AZD7762; first compound 0.3162 µM) | relative viability (Motesanib + AZD7762; first compound 1 µM) |
| --- | --- | --- | --- | --- | --- | --- | --- | --- | --- | --- | --- | --- | --- | --- | --- | --- | --- | --- | --- |
| HOP-62 | 0.672 | 0.598 | 0.635 | 0.762 | 0.369 | 0.306 | 0.412 | 0.388 | 0.395 | 0.288 | 0.296 | 0.214 | 0.209 | 0.173 | 0.456 | 0.836 | 0.613 | 0.761 | 0.595 |
| LC-2-ad | 0.484 | 0.388 | 0.369 | 0.257 | 0.447 | 0.362 | 0.439 | 0.476 | 0.45 | 0.289 | 0.259 | 0.268 | 0.262 | 0.256 | 0.858 | 0.876 | 0.868 | 0.837 | 0.842 |
| LCLC-97TM1 | 0.333 | 0.133 | 0.129 | 0.12 | 0.2 | 0.178 | 0.257 | 0.279 | 0.17 | 0.175 | 0.153 | 0.151 | 0.16 | 0.173 | – | 0.328 | 0.241 | 0.238 | 0.256 |
| LCLC-103H | 0.343 | 0.309 | 0.253 | 0.28 | 0.489 | 0.341 | 0.47 | 0.442 | 0.551 | 0.458 | 0.435 | 0.429 | 0.505 | 0.458 | 0.802 | 0.743 | 0.781 | 0.825 | 0.829 |
| LK-2 | 0.251 | 0.178 | 0.166 | 0.202 | 0.177 | 0.163 | – | 0.163 | 0.181 | 0.234 | 0.288 | 0.208 | 0.256 | 0.171 | 0.364 | 0.337 | 0.281 | 0.497 | 0.371 |
| LOU-NH91 | 0.673 | 0.646 | 0.596 | 0.608 | 0.681 | 0.621 | 0.648 | 0.658 | 0.78 | 0.357 | 0.37 | 0.373 | 0.406 | 0.382 | 0.746 | 0.732 | 0.782 | 0.789 | 0.779 |
| LU99A | 0.773 | 0.621 | 0.586 | 0.52 | 0.262 | 0.234 | 0.263 | 0.273 | 0.263 | 0.2 | 0.181 | 0.185 | 0.18 | 0.174 | 0.39 | 0.361 | 0.382 | 0.399 | 0.355 |
| NCI-H520 | 0.819 | 0.301 | 0.487 | 0.416 | 0.37 | 0.371 | 0.453 | 0.45 | 0.447 | 0.577 | 0.594 | 0.51 | 0.586 | 0.643 | – | – | – | – | – |
| NCI-H661 | 0.245 | 0.235 | 0.233 | 0.229 | 0.372 | 0.357 | 0.367 | 0.361 | 0.351 | 0.862 | 0.925 | 0.887 | 0.986 | 0.961 | – | – | – | – | – |
